{"source": "patent US7833513B2", "about": "“Treatment of Alzheimer's Disease” (Rhode Island Hospital, priority 2004, dated 2010)", "key": {"[1]": {"system": "IGF-I receptor", "assay_type": "in vivo, Long Evans rat", "details": "temporal lobe membrane extracts", "method": "(§1) Membrane proteins were extracted from fresh frozen temporal lobe tissue (˜100 mg) by Polytron (Glen Mils Inc., Clifton, N.J.) homogenization in 5 volumes of NP-40 lysis buffer (50 mM Tris-HCl, pH 7.5, 150 mM NaCl, 1 mM EDTA, 2 mM EGTA, 1% NP-40) containing protease (1 mM PMSF, 0.1 mM TPCK, 1 μg/ml aprotinin, 1 μg/ml pepstatin A, 0.5 μg/ml leupeptin, 1 mM NaF, 1 mM Na4P2O7) and phosphatase (2 mM Na3VO4) inhibitors. The supernatant fractions obtained after centrifuging the samples at 10,000×g for 15 minutes at 4° C. were used in the binding assays. […] Protein concentrations were measured with the bicinchoninic acid (BCA) assay (Pierce, Rockford, Ill.).\n(§2) Competitive equilibrium binding assays were used to assess growth factor binding in relation to ic-STZ-treatment. […]\n(§3) All reactions were performed in 1.5 ml Eppendorff tubes, and the incubations were performed at 4° C. for 16 hours with gentle platform agitation. […] Each sample was counted for 1 minute in an LKB CompuGamma CS Gamma counter. Specific binding was calculated by subtracting fmols of non-specific binding, i.e. amount bound in the presence of excess cold ligand, from total fmols bound (absence of unlabeled competitive ligand). The binding assay results were analyzed using the GraphPad Prism 4 software (GraphPad Software, Inc., San Diego, Calif.)."}, "[2]": {"assay": "ic-STZ rat pup model: blood glucose, body and brain weight, pancreas and brain histopathology", "assay_type": "in vivo, Long Evans rat", "experimental": "Control rats were identically injected with sterile saline. […] Andican et al., Clin. Exp. Pharmacol. Physiol. 32:663 (2005); Saad et al., Arch. Toxicol. (2005); Srinivasan et al., Pharmacol. Res. 52:313 (2005); Karabatas et al., Pancreas 30:318 (2005); Mabley et al., Pancreas 28:E39 (2004). […] The injections were completed within 3 minutes and the needle was withdrawn slowly from the brain.\nAt the termination point of the experiment, the rats were weighed and then sacrificed by isofluorane inhalation. Blood was obtained by cardiac puncture to measure glucose concentration using the OneTouch Ultra Blood Glucose Meter (Lifescan, Inc). The pancreases were harvested and immersion fixed in Histofix (Amresco Corp, Solon, Ohio) for paraffin embedding. Fresh brains were weighed and then cut in the coronal plane to obtain a ˜3 mm thick slice that flanked the infundibulum. The 3-mm brain slice was snap frozen between two slabs of dry ice, and stored at −80° C. for later RNA and protein extractions. The residual tissue was immersion fixed (Histofix) and embedded in paraffin for histopathological study and immunohistochemical staining. In approximately 20% of the cases, the brains were weighed, immersion fixed whole, and then sectioned in the coronal plane along standardized landmarks for paraffin embedding and histopathological sectioning.\nParaffin-embedded histological sections of pancreas (5 μm thick) and brain (8 μm thick) were stained with hematoxylin and eosin (H&E) and examined for histopathological lesions, i.e., inflammation, necrosis, and islet cell degeneration. […] As negative controls for the immunostaining reactions, either the primary antibody was omitted or non-relevant monoclonal antibody to Hepatitis B virus was used in place of the relevant antibody.\nPrior to immunostaining, the deparaffinized, re-hydrated tissue sections were sequentially treated with 0.1 mg/ml saponin in phosphate buffered saline (10 mM sodium phosphate, 0.9% NaCl, pH 7.4; PBS), for 20 minutes at room temperature. […] After overnight incubation at 4° C. with antibodies diluted to 0.1-1 μg/ml (according to the manufacturer's recommendations), immunoreactivity was detected using rat tissue-pre-adsorbed biotinylated secondary antibodies, avidin biotin horseradish peroxidase complex (ABC) reagents, and diaminobenzidine as the chromogen (Vector Laboratories, Burlingame, Calif.). de la Monte et al., Lab. Invest. 80:1323 (2000). The sections were counterstained with hematoxylin and preserved with mounting medium and coverglass. All sections were examined under code."}, "[3]": {"system": "insulin receptor", "assay_type": "in vivo, Long Evans rat", "details": "temporal lobe membrane extracts", "method": "as §1, §2, §3"}, "[4]": {"system": "brain immunoreactivity (p53, GFAP, phospho-tau, ubiquitin, Aβ, ChAT, AChE)", "assay": "ic-STZ model: immunohistochemical staining of brain", "assay_type": "in vivo, Long Evans rat", "excerpt": "Paraffin-embedded histological sections of pancreas (5 μm thick) and brain (8 μm thick) were stained with hematoxylin and eosin (H&E) and examined for histopathological lesions, i.e., inflammation, necrosis, and islet cell degeneration. […] Paraffin sections of brain were immunostained with monoclonal or polyclonal antibodies to phospho-tau, Aβ, p53, ubiquitin, glial fibrillary acidic protein (GFAP), choline acetyltransferase (ChAT), and acetylcholinesterase (AChE) to characterize the nature of ic-STZ-induced AD-type neurodegeneration. As negative controls for the immunostaining reactions, either the primary antibody was omitted or non-relevant monoclonal antibody to Hepatitis B virus was used in place of the relevant antibody.\nPrior to immunostaining, the deparaffinized, re-hydrated tissue sections were sequentially treated with 0.1 mg/ml saponin in phosphate buffered saline (10 mM sodium phosphate, 0.9% NaCl, pH 7.4; PBS), for 20 minutes at room temperature. Endogenous peroxidase activity was quenched by treating the tissue sections with 3% hydrogen peroxide in methanol for 10 minutes, and non-specific binding sites were blocked by a 30-minute incubation in SuperBlock-TBS (Pierce Chemical Co., Rockford, Ill.) at room temperature. After overnight incubation at 4° C. with antibodies diluted to 0.1-1 μg/ml (according to the manufacturer's recommendations), immunoreactivity was detected using rat tissue-pre-adsorbed biotinylated secondary antibodies, avidin biotin horseradish peroxidase complex (ABC) reagents, and diaminobenzidine as the chromogen (Vector Laboratories, Burlingame, Calif.). de la Monte et al., Lab. Invest. 80:1323 (2000). The sections were counterstained with hematoxylin and preserved with mounting medium and coverglass. All sections were examined under code."}, "[5]": {"system": "cerebral cortex and hippocampus glucose and glycogen metabolism", "details": "adult rats, intracerebroventricular injection; cited from earlier work"}, "[6]": {"system": "IGF-II receptor", "assay_type": "in vivo, Long Evans rat", "details": "temporal lobe membrane extracts", "method": "as §1, §2, §3"}, "[7]": {"details": "temporal cortex, hippocampus, hypothalamus/thalamus, cerebellar cortex"}}, "data": [{"smiles": "CN(N=O)C(=O)NC1C(O)OC(CO)C(O)C1O", "note": "(stereo not drawn) [STZ]", "values": [{"measurement": "IGF-I binding vs control", "setting": "[1]", "value": "increased, although the difference was not statistically significant"}, {"measurement": "hemorrhage in brain", "setting": "[2]; 40 mg/kg ic-STZ", "value": "multiple small foci of acute subarachnoid hemorrhage"}, {"measurement": "insulin immunoreactivity in pancreatic islets", "setting": "[2]; 40 mg/kg ic-STZ", "value": "prominent insulin immunoreactivity in all pancreatic islets"}, {"measurement": "pancreas histopathology", "setting": "[2]; 40 mg/kg ic-STZ", "value": "no evidence of inflammation, necrosis, or islet cell degeneration"}, {"measurement": "size of cerebral and cerebellar hemispheres", "setting": "[2]; 40 mg/kg ic-STZ", "value": "conspicuously reduced in size"}, {"measurement": "mean blood glucose level vs control", "setting": "[2]; 40 mg/kg ic-STZ, day 14", "value": "significantly lower than control"}, {"measurement": "mean body weight vs control", "setting": "[2]; 40 mg/kg ic-STZ, day 14", "value": "significantly reduced"}, {"measurement": "mean brain weight vs control", "setting": "[2]; 40 mg/kg ic-STZ, day 14", "value": "significantly reduced relative to control"}, {"measurement": "random blood glucose concentration (none of the rats above)", "setting": "[2]; 40 mg/kg ic-STZ, day 14", "value": "≤ 180", "unit": "mg/dL"}, {"measurement": "survival of the injections", "setting": "[2]; 3-day-old pups, bilateral ic injection", "value": "All animals survived"}, {"measurement": "reduction of mean equilibrium binding to the insulin receptor vs control", "setting": "[3]", "value": "approximately 85%"}, {"measurement": "p53 immunoreactivity in brain", "setting": "[4]; 14- and 21-day post-treatment", "value": "only slightly increased relative to control"}, {"measurement": "p53 immunoreactivity in brain", "setting": "[4]; Day 7 post-treatment", "value": "prominently increased"}, {"measurement": "Aβ immunoreactivity", "setting": "[4]; neurons, vessels, plaque-like deposits", "value": "increased"}, {"measurement": "AChE immunoreactivity", "setting": "[4]; rat, in vivo", "value": "increased"}, {"measurement": "ChAT immunoreactivity", "setting": "[4]; rat, in vivo", "value": "decreased"}, {"measurement": "GFAP immunoreactivity", "setting": "[4]; rat, in vivo", "value": "globally increased"}, {"measurement": "phospho-tau immunoreactivity", "setting": "[4]; [7]", "value": "increased"}, {"measurement": "ubiquitin immunoreactivity", "setting": "[4]; [7]", "value": "increased"}, {"measurement": "chronic reduction in glucose and glycogen metabolism", "setting": "[5]", "value": "10-30%"}, {"measurement": "IGF-II binding vs control", "setting": "[6]", "value": "significantly reduced"}]}]}
